Test: from Caliendo, G., Novellino, E., Santagada, V., Silipo, C., & Vittoria, A. (1991). Structure-activity relationships in a set of antimicrobial. In QSAR, Rational Approaches to the Design of Bioactive …

SMILES | logP
O=C(Nc1ccc2nn(C3CCCCC3)nc2c1)c1ccccc1 | 4.45
O=C(Nc1ccc2nn(C3CCCCC3)nc2c1)C(Cl)Cl | 3.87
COc1cc(C(=O)Nc2ccc3nn(C)nc3c2)cc(OC)c1OC | 2.38
O=C(Nc1ccc2nn(C3CCCCC3)nc2c1)c1ccc([N+](=O)[O-])cc1 | 4.57
Cn1nc2ccc(NC(=O)c3ccc([N+](=O)[O-])cc3)cc2n1 | 2.53
Cn1nc2ccc(NC(=O)c3ccc(Cl)cc3)cc2n1 | 3.13
O=C(Nc1ccc2nn(C3CCCCC3)nc2c1)c1ccc(Cl)c(Cl)c1 | 5.85
Cn1nc2ccc(NC(=O)c3ccccc3)cc2n1 | 2.44
Cn1nc2ccc(NC(=O)CCl)cc2n1 | 1.22

Test: not given

SMILES | logP
COc1cc(C(=O)Nc2ccc3nn(C4CCCCC4)nc3c2)cc(OC)c1OC | 4.45

Source: the SangsterLogP compilation
